According to patent US20240261296A1, “THERAPEUTIC MODALITIES FOR INHIBITING PANCREATIC BETA CELL IMPAIRMENT AND TREATING DIABETES” (Hadasit Medical Research Serices & Development Ltd., priority 2021, published 2024):

How the values were obtained:
human islet cells = test: Caspase-Glo 3/7 assay in palmitic acid-treated human islets; type: cell-based; parameters: rescuing human islet cells from apoptosis, compared with L-798106 / inhibiting or reversing palmitate-induced apoptosis in pancreatic islets of both human donors / inhibition of palmitate-induced apoptosis in human islets, donor 1: dose or concentration left out as unconfirmed; settings: palmitic acid, 48 h; for rescuing human islet cells from apoptosis, compared with L-798106: two human donors
Experimental: (§1) Islet and cell culture: The pancreatic β-cell line MIN6, which is a clonal murine insulin-secreting line, was cultured in DMEM (Biological Industries, Beit Haemek, Israel) supplemented with 11 mM Glucose, 2 mM glutamine, 15% heat-inactivated fetal calf serum (FCS), 100 U/ml penicillin, 100 µg/ml streptomycin and 61 μM β-mercaptoethanol. Human islets were obtained from the European Consortium for Islet Transplantation (ECIT) at the San Raffaele Hospital and from the Niguarda Hospital, (Milan, Italy) and cultured in CMRL-1066 media (Biological Industries, Beit HaEmek, Israel) supplemented with 10% FCS, 5.5 mM glucose, 2 mM L-Glutamine, 100 U/ml penicillin, 100 μg/ml streptomycin and 150 μg/ml gentamycin. Palmitate was added to 1% FCS and 0.5% defatted BSA (Roche, Germany).
Next, the ability of the compounds to rescue human islet cells from palmitate-induced apoptosis was determined. To this end, the Caspase-Glo 3/7 assay reagent (Promega) was used for caspase 3/7 detection in palmitic acid-treated cells. The reagent provides a proluminescent caspase-3/7 substrate, which contains the tetrapeptide sequence DEVD, in combination with luciferase and a cell-lysing agent. The addition of the reagent directly to the wells results in cell lysis, followed by caspase cleavage of the DEVD substrate, and the generation of luminescence.
Accordingly, human islets from two donors were exposed to the various compounds or to L-798106 for 48 h in the presence of palmitic acid, and the bioluminescence was measured as compared to control cells. FIGS. 3A-3B show the results of the treatment with […] of the compounds in two human donors (FIG. 3A—donor 1, FIG. 3B—donor 2). PA: Palmitate; L: L-798106; RLU: Relative Light Units. The results are average of triplicates or quadruplicates ±SEM (except in islets from L-798106 treated donor 2, representing duplicates).
Next, various concentrations of the compounds were tested in human pancreatic islet cells. Cells obtained from the first healthy donor (donor 1) were incubated in the presence or absence of PA with C13, C5 or L-798106 (L) at concentrations of 5, 2.5 and 0.5 μM. Caspase 3/7 enzymatic activity was measured as described above. The enzymatic activity is presented in FIG. 5A for 5 μM, FIG. 5B for 2.5 μM and FIG. 5C for 0.5 μM as relative light units (RLU/μg protein) and the graphs represent the average of n=3-4.

db/db mice [1] = test: random blood glucose levels in db/db and control mice; type: in vivo; settings: for average random blood glucose levels in db/db mice: 8 weeks gavage, compared to the vehicle; for random blood glucose levels at 8 weeks: compared with L-798106 treated mice
Experimental: The effects of the compounds were tested in an in vivo model of diabetes. To this end, C57BLKS/J mice with the leptin receptor mutation (BKS-db; BKS.Cg-Dock7m+/+Leprdb/J), known as an animal model characteristic of human T2DM, were used, when both male and female homozygotes to Leprb mutation (db/db) develop spontaneous T2DM with phenotypes that include: (I) severe obesity, (II) progressive and sustained hyperglycemia, when the course of the disease is markedly influenced by genetic background BLKS (in contrast to regular C57BL/6J background mice with the same mutation (B6-db), (III) glucose intolerance resulting in elevated serum cholesterol, glucose, and triglycerides, and (VI) elevations of plasma blood sugar resulting in severe depletion of the insulin-producing β-cells of the pancreatic islets, and eventually death.
Two sets of experiments with two colonies of homozygote mice were performed with the C5 and C13 compounds (n=5 for each experiment), compared to L-798106. The compounds were administered to 7-8-week-old mice by oral gavage (2.5 mg/kg/day) for eight weeks. Control group (n=10-15) received vehicle (DMSO in PBS). Blood glucose was randomly tested throughout the experiment.
To test the effect of the compounds C15, C17 and C20 on random blood glucose levels, control and db/db mice underwent essentially the same treatment course and measurements as described in Example 9.

[2] = blood insulin concentrations by serum C-peptide ELISA; type: in vivo; settings: 8 weeks oral treatment; vs vehicle-treated diabetic mice
Experimental: At the end of the 8 week-long period of treatment as described in Example 9, mice were sacrificed and blood samples were collected, and analyzed for different parameters as detailed below.
Blood insulin concentrations.
Blood insulin concentrations. Following 8 weeks of treatment, blood samples were collected and the levels of insulin in the collected sera were assessed essentially as described in Example 12. The results are presented in FIG. 28, in which the different test groups as presented in FIG. 28 are represented as described in Example 14 and “ns” indicates non-significant differences. The numbers of tested mice are as follows: vehicle (n=10), L-798106 (n=10), C17 (n=5), C20 (n=5).

db/db mice [3] = test: Insulin Tolerance Test (ITT); type: in vivo; settings: 8 weeks oral treatment; 0.75 U/kg insulin; all time points; vs vehicle
Experimental: An Insulin Tolerance Test (ITT) was conducted to determine the effect of the test compounds on insulin resistance, following oral administration of Vehicle or the tested compounds as described in Example 9. To this end, the different treated groups were further subjected to a subsequent 5-hour fast and then injected with 0.75 U/kg insulin. Blood glucose was measured at the time of insulin injection (baseline level) and at the indicated time intervals thereafter. Blood glucose levels and AUC of the wild-type mice are presented in FIGS. 19A-19B respectively, and blood glucose levels and AUC of the db/db mice are presented in FIGS. 19C-19D respectively. The different test groups as presented in FIGS. 19A-19D are represented as described in Example 9.
To determine the effect of the C17 and C20 compounds on insulin resistance, an ITT was conducted essentially as described in Example 11. Blood glucose levels and AUC of the wild-type mice are presented in FIGS. 27A-27B respectively (n=5-15), and blood glucose levels and AUC of the db/db mice are presented in FIGS. 27C-27D respectively (n=5-10). The different test groups as presented in FIGS. 27A-27D are represented as described in Example 14.

MIN6 cells = test: rescue of MIN6 cells from palmitate-induced apoptosis (cleaved caspase 3 western blot; FACS SubG1); type: cell-based, murine; settings: palmitic acid 0.3 mM, 48 hours; compared to L-798106
Experimental: as §1
Western blotting: Cells were lyzed in Laemmli protein sample buffer, separated on SDS-polyacrylamide gel, and transferred to […] nitrocellulose membranes (Schleicher and Schuell, Dassel, Germany). After blocking in 5% dried skimmed milk, the membranes were first incubated with the appropriate antibodies against: cleaved caspase-3 (Asp175) (Cell Signaling Technology Danvers, MA) and α-tubulin (Sigma-Aldrich.) and then with horseradish peroxidase conjugated anti-rabbit or anti-mouse IgG, followed by analysis with an enhanced chemiluminescence detection kit (Biological Industries, Israel).
The remaining compounds were screened for the ability to rescue β-cells from palmitate-induced apoptosis as compared to the commercial EP3 antagonist L-798106 by measuring the levels of the cleaved caspase 3 apoptotic marker, using Western Blot analysis (FIG. 1). […] Cell extracts were analyzed by western blotting for the presence of cleaved caspase 3 as compared to α-Tubulin.
The ability of the compounds to rescue β-cells from apoptosis was also evaluated using FACS analysis and measuring the SubG1 population (FIG. 2). […] Collected cells were analyzed by FACS and the SubG1 fractions (representing apoptotic cell products or components were compared. The average of 4-6 independent experiments is presented in FIG. 2.

db/db mice [4] = test: intraperitoneal glucose tolerance test (IPGTT); type: in vivo; settings: 8 weeks oral 2.5 mg/kg/day; glucose 1 g/kg; all time points; vs vehicle
Experimental: Lepr^db/db homozygotes (db/db) and heterozygote Lepr^db/+ (wild type) mice were treated daily with 2.5 mg/kg/day oral administration of the Vehicle, the commercial EP3 antagonist L-798106 and the compounds C5 and C13 for 8 weeks, as described in Example 9. A glucose tolerance test (Intraperitoneal glucose tolerance test, IPGTT) was performed following four weeks and eight weeks of the onset of treatment, as follows. Glucose (1 g/kg) was injected following 8 hours of fasting, and blood glucose was measured at baseline and at 30-, 60-, 90- and 120-minutes post glucose administration.
Heterozygote (wild type) and diabetic db/db mice were treated daily with the Vehicle, L-798106 and the compounds C17 and C20 for 8 weeks, essentially as described in Example 9. A glucose tolerance test (IPGTT) was performed essentially as described in Example 10.

pancreatic β-cell = settings: chow and high-fat diet islets; cited from earlier work

## Cc1n[nH]c(C)c1S(=O)(=O)Nc1ccccc1C(=O)N[C@@H](C)c1ccccc1 [Compound C4, (S)-2-((3,5-dimethyl-1H-pyrazole)-4-sulfonamido)-N-(1-phenylethyl)benzamide]
Human islet cells
  inhibition of palmitate-induced apoptosis in human islets, donor 1: moderate inhibitory activity comparable to that of L-798106

## Cc1nn(C)c(C)c1C[C@@H](C)NC(=O)c1ccc(S(=O)(=O)Nc2ccccc2F)cc1 [Compound C9, (R)-4-(N-(2-fluorophenyl)sulfamoyl)-N-(1-(1,3,5-trimethyl-1H-pyrazol-4-yl)propan-2-yl)benzamide]
Human islet cells
  inhibition of palmitate-induced apoptosis in human islets, donor 1: marked inhibitory activity

## CCn1nc(C)c(S(=O)(=O)Nc2ccc(Cl)cc2C(=O)c2ccc[nH]2)c1C [Compound C10, N-(4-chloro-2-(1H-pyrrole-2-carbonyl)phenyl)-1-ethyl-3,5-dimethyl-1H-pyrazole-4-sulfonamide]
Human islet cells
  inhibiting or reversing palmitate-induced apoptosis in pancreatic islets of both human donors: failed to inhibit

## COc1ccc([C@@H](CC(=O)O)NC(=O)c2cn(Cc3cccc(F)c3)nn2)cc1OC [Compound C12, (R)-3-(3,4-dimethoxyphenyl)-3-(1-(3-fluorobenzyl)-1H-1,2,3-triazole-4-carboxamido)propanoic acid]
Human islet cells
  rescuing human islet cells from apoptosis, compared with L-798106: to a greater extent than the EP3 antagonist L-798106

## COc1cc(/C=C(\CCC(=O)O)c2nc3ccccc3s2)ccc1OCc1ccccc1 [Compound C15, (E)-4-(benzo[d]thiazol-2-yl)-5-(4-(benzyloxy)-3-methoxyphenyl)pent-4-enoic acid]
db/db mice [1]
  average random blood glucose levels in db/db mice: effective in lowering average blood glucose levels
Human islet cells
  rescuing human islet cells from apoptosis, compared with L-798106: to a greater extent than the EP3 antagonist L-798106

## COc1cc(/C=C(/CC(=O)O)c2nc3ccccc3s2)ccc1OCc1cccc(C(F)(F)F)c1 [Compound C17, (Z)-3-(benzo[d]thiazol-2-yl)-4-(3-methoxy-4-((3-(trifluoromethyl)benzyl)oxy)phenyl)but-3-enoic acid]
[2]
  blood insulin levels (serum C-peptide) in diabetic mice: the differences did not reach statistical significance
db/db mice [3]
  glucose levels after insulin injection (insulin sensitivity), db/db mice: Improve Insulin Sensitivity
MIN6 cells
  rescue of β-cells from palmitate-induced apoptosis (cleaved caspase 3; SubG1 population): exceptionally high efficacy
db/db mice [1]
  average random blood glucose levels in db/db mice: effective in lowering average blood glucose levels
  random blood glucose levels at 8 weeks: the same blood glucose levels as the L-798106 treated mice
Human islet cells
  rescuing human islet cells from apoptosis, compared with L-798106: to a greater extent than the EP3 antagonist L-798106
db/db mice [4]
  hyperglycemia in IPGTT, db/db mice: significantly alleviated hyperglycaemia

## COc1cc(/C=C(\CCC(=O)O)c2nc3ccccc3s2)ccc1OCc1ccc(F)cc1 [Compound C20, (E)-4-(benzo[d]thiazol-2-yl)-5-(4-((4-fluorobenzyl)oxy)-3-methoxyphenyl)pent-4-enoic acid]
[2]
  blood insulin levels (serum C-peptide) in diabetic mice: the differences did not reach statistical significance
db/db mice [3]
  glucose levels after insulin injection (insulin sensitivity), db/db mice: Improve Insulin Sensitivity
db/db mice [1]
  average random blood glucose levels in db/db mice: effective in lowering average blood glucose levels
  random blood glucose levels at 8 weeks: the same blood glucose levels as the L-798106 treated mice
Human islet cells
  rescuing human islet cells from apoptosis, compared with L-798106: to a greater extent than the EP3 antagonist L-798106
db/db mice [4]
  hyperglycemia in IPGTT, db/db mice: significantly alleviated hyperglycaemia

## C=C1C(=O)OC(CCCCCCCC)C1C(=O)O (stereo not drawn) [Compound C75]
Pancreatic β-cell
  glucose-induced insulin secretion: markedly reduced
  β cell electrical activity: markedly reduced
